One series relates to DSS-induced colitis. In words: DSS-induced colitis model (7% DSS), proof of concept with pCMV-GMCSF plasmid DNA. The format is in vivo, mice. Particulars: plasmid single injection day 0 + EP, drugs and protein daily. The protocol:
Two concentrations of pCMV-mGMCSF were tested side by side with a control plasmid (pNull) and two mGM-CSF protein formulations, non-pegylated and pegylated in the DSS-induced colitis model (N=10/group). A single plasmid DNA injection was administered at day 0 followed by electroporation. Murine GM-CSF protein was injected s.c. daily. Disease was induced with 7% DSS in the drinking water and clinical scores (DIA) were recorded daily.
(§1) Likewise, the DSS-induced mouse colitis model is useful for evaluating therapies for UC, IBD and CD. Disease is induced in mice by daily administration of 5% or 7% dextran sodium sulfate (DSS) in the drinking water over 8 days. Disease progression is monitored by the Daily Activity Index (DAI), a cumulative index of: weight loss, stool consistency, and rectal bleeding, which mimics the symptoms of UC, IBD and/or CD.
vii. […] In this study the efficacy of pGMCSF plasmid DNA was evaluated side by side with Mesopram, Metronidazole, non-pegylated or pegylated mGM-CSF. The disease was induced using 7% DSS, administered daily in the drinking water. Mesopram, Metronidazole and mGM-CSF protein were administered daily, using the same dosing regimen as described for the validation study. pGMCSF plasmid DNA was injected at day 0 followed by electroporation. […]

A further series has as its system acute EAE in SJL mice. In words: Mouse acute EAE model, mIFN-β protein. The format is in vivo. Particulars: IP twice daily; Mesopram 9 mg/kg, Prednisolone 2.5 mg/kg.
The nature of series [1]: mGM-CSF concentration in sera at day 8 of the DSS colitis study. Particulars: final day of DSS study.
Protocol: (§2) At day 8, the final day of the study, mGM-CSF concentrations were measured in sera of all mice.
In series [2] the test system is DSS-induced colitis in Balb/C mice. In words: DSS-induced colitis model (5% DSS), validation, Disease Activity Index. Type of series: in vivo. Particulars: daily treatment, Mesopram/Metronidazole 50 mg/kg IP, mGM-CSF 5 μg non-pegylated, 5 or 10 μg pegylated. The protocol: Disease was induced in BalbC mice (N=10/group) by DSS (5%) applied daily in the drinking water. Mesopram, Metronidazole, or yeast expressed non-pegylated respectively pegylated mGM-CSF, was administered daily over a period of 8 days. Clinical scores (Daily Activity Index (DAI), a cumulative index of: weight loss, stool consistency, and rectal bleeding) were recorded daily.
as §1
vi. DSS-induced colitis model. Prior to the gene delivery study the model was established and validated in Balb/C mice using non-pegylated and pegylated mGM-CSF protein. Disease was induced in Balb/C mice with 5% dextran sodium sulfate (DSS), provided in the drinking water every day over a period of 8 days. As the main endpoint, the Disease Activity Index (DAI, a cumulative index of: weight loss, stool consistency, and rectal bleeding) was recorded daily. […]

The conditions of series [3]: mouse, in vivo.
Protocol: as §2
The target of a further series is GAL-4 DBS. Particulars: read-out: Kd for binding; cited from earlier work.

Where two headings read alike, the source gives them in different places.

In the case of `CCCOc1cc([C@]2(C)CNC(=O)O2)ccc1OC` [Mesopram, reference compound], the “disease scores (DAI)” value in the series on DSS-induced colitis was “efficacious”. In addition, the “clinical scores of EAE, positive controls” value in the series on acute EAE in SJL mice is recorded as “significantly decreased clinical scores”. The “GM-CSF in sera at day 8” value in series [1] is on record as “not detectable”. Moreover, in series [2], the DAI score result was “significantly reduced”.
In the case of `Cc1ncc([N+](=O)[O-])n1CCO` [Metronidazole, reference compound], the “GM-CSF in sera at day 8” value in series [3] is listed as “not detectable”. The “disease scores (DAI)” value in the series with DSS-induced colitis is reported as “efficacious”. The DAI score entry in series [2] is “significantly reduced”.
Turning to `C[C@]12C=CC(=O)C=C1CC[C@@H]1[C@@H]2[C@@H](O)C[C@@]2(C)[C@H]1CC[C@]2(O)C(=O)CO` [Prednisolone], the “clinical scores of EAE, positive controls” value with acute EAE in SJL mice was “significantly decreased clinical scores”.
What is called Kd is the concentration at which binding is half-saturated. As for “GAL-4 residues 1-100: N-terminal DNA binding fragment of yeast GAL-4 protein”, the dissociation constant Kd on GAL-4 DBS is 3 nM.
